Data as given in PubChem BioAssay (NCI).
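Each compound was tested at five concentrations against cells in 96-well plates for 48 hours. Definition used: TGI = concentration required for complete inhibition of growth.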

What was measured:
Test in all cases: NCI-60 cell line screen, 48 h
786-0 renal = tested on: 786-0 renal
A498 renal = tested on: A498 renal
A549 NSCLC = tested on: A549 NSCLC
ACHN renal = tested on: ACHN renal
CAKI-1 renal = tested on: CAKI-1 renal
CCRF-CEM leukemia = tested on: CCRF-CEM leukemia
COLO 205 colon = tested on: COLO 205 colon
DLD-1 colon = tested on: DLD-1 colon
DMS 114 small cell lung = tested on: DMS 114 small cell lung
DMS 273 small cell lung = tested on: DMS 273 small cell lung
EKVX NSCLC = tested on: EKVX NSCLC
HCC-2998 colon = tested on: HCC-2998 colon
HCT-116 colon = tested on: HCT-116 colon
HCT-15 colon = tested on: HCT-15 colon
HOP-18 NSCLC = tested on: HOP-18 NSCLC
HOP-62 NSCLC = tested on: HOP-62 NSCLC
HT29 colon = tested on: HT29 colon
IGROV1 ovarian = tested on: IGROV1 ovarian
K-562 leukemia = tested on: K-562 leukemia
KM12 colon = tested on: KM12 colon
KM20L2 colon = tested on: KM20L2 colon
LOX IMVI melanoma = tested on: LOX IMVI melanoma
LXFL 529 NSCLC = tested on: LXFL 529 NSCLC
M14 melanoma = tested on: M14 melanoma
M19-MEL melanoma = tested on: M19-MEL melanoma
MALME-3M melanoma = tested on: MALME-3M melanoma
MOLT-4 leukemia = tested on: MOLT-4 leukemia
NCI-H226 lung = tested on: NCI-H226 lung
NCI-H23 lung = tested on: NCI-H23 lung
NCI-H460 lung = tested on: NCI-H460 lung
NCI-H522 lung = tested on: NCI-H522 lung
OVCAR-3 ovarian = tested on: OVCAR-3 ovarian
OVCAR-4 ovarian = tested on: OVCAR-4 ovarian
OVCAR-5 ovarian = tested on: OVCAR-5 ovarian
OVCAR-8 ovarian = tested on: OVCAR-8 ovarian
RXF 393 renal = tested on: RXF 393 renal
SF-268 CNS = tested on: SF-268 CNS
SF-295 CNS = tested on: SF-295 CNS
SK-MEL-2 melanoma = tested on: SK-MEL-2 melanoma
SK-MEL-28 melanoma = tested on: SK-MEL-28 melanoma
SK-MEL-5 melanoma = tested on: SK-MEL-5 melanoma
SK-OV-3 ovarian = tested on: SK-OV-3 ovarian
SN12C renal = tested on: SN12C renal
SNB-19 CNS = tested on: SNB-19 CNS
SNB-75 CNS = tested on: SNB-75 CNS
SNB-78 CNS = tested on: SNB-78 CNS
SR leukemia = tested on: SR leukemia
SW-620 colon = tested on: SW-620 colon
TK-10 renal = tested on: TK-10 renal
U251 CNS = tested on: U251 CNS
UACC-257 melanoma = tested on: UACC-257 melanoma
UACC-62 melanoma = tested on: UACC-62 melanoma
UO-31 renal = tested on: UO-31 renal
HOP-92 NSCLC = tested on: HOP-92 NSCLC
SF-539 CNS = tested on: SF-539 CNS
XF 498 CNS = tested on: XF 498 CNS

With Cc1cccc(C(=O)O)c1C(=O)c1cccc2ccccc12 the TGI (786-0 renal) was > 100 µM, the TGI (A498 renal) was > 100 µM and the TGI (A549 NSCLC) was > 100 µM. For the same molecule, the TGI (ACHN renal) was > 100 µM, the TGI (CAKI-1 renal) was > 100 µM and the TGI (CCRF-CEM leukemia) was > 100 µM. The TGI (COLO 205 colon) was > 100 µM, the TGI (DLD-1 colon) was > 100 µM and the TGI (DMS 114 small cell lung) was > 100 µM. For the same molecule, the TGI (DMS 273 small cell lung) was > 100 µM, the TGI (EKVX NSCLC) was > 100 µM and the TGI (HCC-2998 colon) was > 100 µM. For the same molecule, the TGI (HCT-116 colon) was > 100 µM, the TGI (HCT-15 colon) was > 100 µM and the TGI (HOP-18 NSCLC) was > 100 µM. The TGI (HOP-62 NSCLC) was > 100 µM, the TGI (HT29 colon) was > 100 µM and the TGI (IGROV1 ovarian) was > 100 µM. The TGI (K-562 leukemia) was > 100 µM, the TGI (KM12 colon) was > 100 µM and the TGI (KM20L2 colon) was > 100 µM. For the same molecule, the TGI (LOX IMVI melanoma) was > 100 µM, the TGI (LXFL 529 NSCLC) was > 100 µM and the TGI (M14 melanoma) was > 100 µM. For the same molecule, the TGI (M19-MEL melanoma) was > 100 µM, the TGI (MALME-3M melanoma) was > 100 µM and the TGI (MOLT-4 leukemia) was > 100 µM. For the same molecule, the TGI (NCI-H226 lung) was > 100 µM, the TGI (NCI-H23 lung) was > 100 µM and the TGI (NCI-H460 lung) was > 100 µM. The TGI (NCI-H522 lung) was > 100 µM, the TGI (OVCAR-3 ovarian) was > 100 µM and the TGI (OVCAR-4 ovarian) was > 100 µM. For the same molecule, the TGI (OVCAR-5 ovarian) was > 100 µM, the TGI (OVCAR-8 ovarian) was > 100 µM and the TGI (RXF 393 renal) was > 100 µM. For the same molecule, the TGI (SF-268 CNS) was > 100 µM, the TGI (SF-295 CNS) was > 100 µM and the TGI (SK-MEL-2 melanoma) was > 100 µM. The TGI (SK-MEL-28 melanoma) was > 100 µM, the TGI (SK-MEL-5 melanoma) was > 100 µM and the TGI (SK-OV-3 ovarian) was > 100 µM. For the same molecule, the TGI (SN12C renal) was > 100 µM, the TGI (SNB-19 CNS) was > 100 µM and the TGI (SNB-75 CNS) was > 100 µM. The TGI (SNB-78 CNS) was > 100 µM, the TGI (SR leukemia) was > 100 µM and the TGI (SW-620 colon) was > 100 µM. For the same molecule, the TGI (TK-10 renal) was > 100 µM, the TGI (U251 CNS) was > 100 µM and the TGI (UACC-257 melanoma) was > 100 µM. For the same molecule, the TGI (UACC-62 melanoma) was > 100 µM and the TGI (UO-31 renal) was > 100 µM.
For CCC(=O)OC1CCn2c1nc1c2C(=O)C(C)=C(NC(C)=O)C1=N (centres undefined), the TGI (786-0 renal) was 6.06 µM, the TGI (A498 renal) was 4.21 µM and the TGI (A549 NSCLC) was 10.2 µM. For the same molecule, the TGI (ACHN renal) was 3.95 µM, the TGI (CAKI-1 renal) was 1.94 µM and the TGI (COLO 205 colon) was 3.18 µM. It also gave a TGI (DLD-1 colon) of 3.19 µM, a TGI (DMS 114 small cell lung) of 3.53 µM and a TGI (DMS 273 small cell lung) of 3.11 µM. The TGI (EKVX NSCLC) was 5.48 µM, the TGI (HCC-2998 colon) was 13 µM and the TGI (HCT-116 colon) was 2.39 µM. For the same molecule, the TGI (HCT-15 colon) was 6.27 µM, the TGI (HOP-18 NSCLC) was 3.26 µM and the TGI (HOP-62 NSCLC) was 3.47 µM. It also gave a TGI (HOP-92 NSCLC) of 5.15 µM, a TGI (HT29 colon) of 3.36 µM and a TGI (IGROV1 ovarian) of 5.54 µM. The TGI (K-562 leukemia) was > 100 µM, the TGI (KM12 colon) was 5.37 µM and the TGI (KM20L2 colon) was 3.38 µM. For the same molecule, the TGI (LOX IMVI melanoma) was 3 µM, the TGI (M19-MEL melanoma) was 0.365 µM and the TGI (MALME-3M melanoma) was 2.74 µM. The TGI (NCI-H226 lung) was 4.63 µM, the TGI (NCI-H23 lung) was 3.23 µM and the TGI (NCI-H460 lung) was 3 µM. It also gave a TGI (NCI-H522 lung) of 2.79 µM, a TGI (OVCAR-3 ovarian) of 3.31 µM and a TGI (OVCAR-4 ovarian) of 2.66 µM. For the same molecule, the TGI (OVCAR-5 ovarian) was 3.47 µM, the TGI (OVCAR-8 ovarian) was 2.89 µM and the TGI (SF-268 CNS) was 4.94 µM. For the same molecule, the TGI (SF-295 CNS) was 4.12 µM, the TGI (SF-539 CNS) was 3.21 µM and the TGI (SK-MEL-2 melanoma) was 3.43 µM. The TGI (SK-MEL-28 melanoma) was 3.5 µM, the TGI (SK-MEL-5 melanoma) was 2.55 µM and the TGI (SK-OV-3 ovarian) was 6.82 µM. For the same molecule, the TGI (SN12C renal) was 3.02 µM, the TGI (SNB-19 CNS) was 16.8 µM and the TGI (SNB-75 CNS) was 4.45 µM. For the same molecule, the TGI (SNB-78 CNS) was 6.05 µM, the TGI (SR leukemia) was > 100 µM and the TGI (SW-620 colon) was 2.44 µM. It also gave a TGI (TK-10 renal) of 12.8 µM, a TGI (U251 CNS) of 17.2 µM and a TGI (UACC-257 melanoma) of 2.5 µM. The TGI (UACC-62 melanoma) was 2.71 µM, the TGI (UO-31 renal) was 4.64 µM and the TGI (XF 498 CNS) was 4.31 µM.
